Test system: 653999-131-R-J2-PDC complex spheroids, growth % test/control
Experiment: Anticancer human tumor 653999-131-R-J2-PDC patient-derived lung adenocarcinoma cell line growth inhibition [AhR]
Conditions: for IC50: curve of first compound; for viability, T/C: stronger effect = lower value
Source text: Multicellular complex tumor spheroid response to aryl hydrocarbon receptor antagonists in combination with a variety of drugs and investigational agents in selected tumor cell lines
The current study was undertaken to assess response to aryl hydrocarbon receptor antagonists in combination with standard-of-care drugs and investigational agents in solid tumor complex spheroid models. Complex spheroids include a stromal component modeled by human endothelial cells (HUVEC) and fibroblasts modeled by human mesenchymal stem cells (MSCs). The concentration ranges selected for each drug and investigational agent were based upon clinically achievable concentrations if the clinical Cmax of the agent was known.
Compounds. The drugs and investigational agents: BAY 2416964 (NSC825713), GNF351 (NSC835774), CH-223191 (NSC835775), CPI-455 (NSC825282), aza-TdCyd (NSC777586), decitabine (NSC127716), belinostat (NSC758774), entinostat (NSC756642), pevonedistat (NSC761192), tazemetostat (NSC777109), talazoparib (NSC765396), olaparib (NSC753686), selinexor (NSC780203), nedisertib (M3814, NSC802822), bortezomib (NSC756655), venetoclax (NSC766270), doxorubicin (NSC123127), elimusertib (BAY189344, NSC800525), ceralasertib (AZD6738, NSC777638), TAK-243 (NSC785004), alisertib (NSC759677), etoposide (NSC141540), topotecan (NSC609699), eribulin (NSC707389), gemcitabine (NSC613327), carboplatin (NSC241240), cisplatin (NSC119875), and SN-38 (NSC673596) were obtained from the National Cancer Institute (NCI) Developmental Therapeutics Program Chemical Repository (32). The FDA-approved anticancer drug set is available from the Developmental Therapeutics Program at https://dtp.cancer.gov/organization/dscb/obtaining/available plates.htm. […] The stock solutions were prepared in dimethyl sulfoxide (DMSO, Sigma-Aldrich, St. Louis, MO, cat. D2650), except for the platinum compounds which were prepared in saline (Quality Biological, Gaithersburg, MD, cat. 114-055-101), at 800-fold the tested concentration and stored at -70 degrees C prior to their use. All drugs and investigational agents were tested over a range starting from a high concentration at or near the clinical Cmax and decreasing in half-log increments. If the clinical Cmax for an agent had not been determined, the highest concentration tested was 10 microM (Table 1).
Cell Culture. All cells were maintained in an incubator at 37 degrees C and 5% CO2 with 95% humidity. The PDC lines were cultured according to standard operating procedures established by the NCI PDMR (https://pdmr.cancer.gov). Briefly, all PDCs were thawed and cultured in Matrigel-coated flasks prepared with a working solution of 1X Ham's F-12 nutrient mix, without supplementation (Invitrogen, Waltham, MA, cat. 11765054), 100 U/mL penicillin-streptomycin (Invitrogen, cat. 15140122), and 2.5% Matrigel (Corning Inc., Corning, NY, cat. 354248) for the first three passages. All PDCs were cultured in complete DMEM/F-12 media containing advanced DMEM/F-12 (Invitrogen, cat. 12634028), 4.9% defined fetal bovine serum, heat inactivated (HyClone Laboratories Inc., Logan, UT, cat. SH30070.03HI), 389 ng/mL hydrocortisone (Sigma-Aldrich, cat. H4001), 9.7 ng/mL human EGF recombinant protein (Invitrogen, cat. PHG0313), 23.4 microg/mL adenine (Sigma-Aldrich, cat. A2786), 97.3 U/mL penicillin-streptomycin (Invitrogen, cat. 15140122), 1.9 mM L-glutamine (Invitrogen, cat. 25030081), and 9.7 microM Y-27632 dihydrochloride (Tocris Bioscience, Bristol, United Kingdom, cat. 1254). The PDCs were cultured in complete DMEM/F12 media without 10 microM Y-27632 dihydrochloride for at least two passages prior to the screen. The established cell lines NCI-H1341 and […] were cultured in DMEM/F-12, HEPES (Invitrogen, cat. 11330032), 5% defined fetal bovine serum (HyClone Laboratories Inc., cat. SH30070.03), ITS premix universal culture supplement [insulin (5 microg/mL), transferrin (5 microg/mL), and selenious acid (5 ng/mL)] […]
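Further: spheroids exposed to agents for seven days.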

## COc1cc(Nc2ncc3c(n2)-c2ccc(Cl)cc2C(c2c(F)cccc2OC)=NC3)ccc1C(=O)O + Cc1ccccc1N=Nc1ccc(NC(=O)c2ccnn2C)c(C)c1
Second compound 0.1 µM
  IC50: > 10000 nM
Second compound 0.316 µM
  IC50: > 10000 nM
Second compound 1 µM
  IC50: > 10000 nM
Second compound 3.16 µM
  IC50: > 10000 nM
Second compound 10 µM
  IC50: > 10000 nM
Second compound 0.1 µM, first compound 0.0316 µM
  viability, T/C: 87.8%
Second compound 0.1 µM, first compound 0.1 µM
  viability, T/C: 74.9%
Second compound 0.1 µM, first compound 0.316 µM
  viability, T/C: 71.1%
Second compound 0.1 µM, first compound 1 µM
  viability, T/C: 58.2%
Second compound 0.1 µM, first compound 3.16 µM
  viability, T/C: 57.1%
Second compound 0.1 µM, first compound 10 µM
  viability, T/C: 64.3%
Second compound 0.316 µM, first compound 0.0316 µM
  viability, T/C: 93.4%
Second compound 0.316 µM, first compound 0.1 µM
  viability, T/C: 70.9%
Second compound 0.316 µM, first compound 0.316 µM
  viability, T/C: 71.9%
Second compound 0.316 µM, first compound 1 µM
  viability, T/C: 67.3%
Second compound 0.316 µM, first compound 3.16 µM
  viability, T/C: 57.9%
Second compound 0.316 µM, first compound 10 µM
  viability, T/C: 60.1%
Second compound 1 µM, first compound 0.0316 µM
  viability, T/C: 81%
Second compound 1 µM, first compound 0.1 µM
  viability, T/C: 74%
Second compound 1 µM, first compound 0.316 µM
  viability, T/C: 66.8%
Second compound 1 µM, first compound 1 µM
  viability, T/C: 62.2%
Second compound 1 µM, first compound 3.16 µM
  viability, T/C: 60.6%
Second compound 1 µM, first compound 10 µM
  viability, T/C: 53.8%
Second compound 3.16 µM, first compound 0.0316 µM
  viability, T/C: 83%
Second compound 3.16 µM, first compound 0.1 µM
  viability, T/C: 62.8%
Second compound 3.16 µM, first compound 0.316 µM
  viability, T/C: 70.5%
Second compound 3.16 µM, first compound 1 µM
  viability, T/C: 61.2%
Second compound 3.16 µM, first compound 3.16 µM
  viability, T/C: 62.9%
Second compound 3.16 µM, first compound 10 µM
  viability, T/C: 54.6%
Second compound 10 µM, first compound 0.0316 µM
  viability, T/C: 80.2%
Second compound 10 µM, first compound 0.1 µM
  viability, T/C: 66.9%
Second compound 10 µM, first compound 0.316 µM
  viability, T/C: 63.2%
Second compound 10 µM, first compound 1 µM
  viability, T/C: 71%
Second compound 10 µM, first compound 3.16 µM
  viability, T/C: 56.5%
Second compound 10 µM, first compound 10 µM
  viability, T/C: 54.4%

## O=C(C=Cn1cnc(-c2cc(C(F)(F)F)cc(C(F)(F)F)c2)n1)NNc1cnccn1 + Cc1cncc(-c2nc(NCCc3c[nH]c4ccccc34)c3ncn(C(C)C)c3n2)c1
Second compound 0.1 µM
  IC50: 233 nM
Second compound 0.316 µM
  IC50: 293 nM
Second compound 1 µM
  IC50: 514 nM
Second compound 3.16 µM
  IC50: 376 nM
Second compound 10 µM
  IC50: 48.5 nM
Second compound 0.1 µM, first compound 0.00949 µM
  viability, T/C: 91.2%
Second compound 0.1 µM, first compound 0.03 µM
  viability, T/C: 65.8%
Second compound 0.1 µM, first compound 0.0949 µM
  viability, T/C: 62.2%
Second compound 0.1 µM, first compound 0.3 µM
  viability, T/C: 45.2%
Second compound 0.1 µM, first compound 0.949 µM
  viability, T/C: 43.8%
Second compound 0.1 µM, first compound 3 µM
  viability, T/C: 38.3%
Second compound 0.316 µM, first compound 0.00949 µM
  viability, T/C: 85%
Second compound 0.316 µM, first compound 0.03 µM
  viability, T/C: 74%
Second compound 0.316 µM, first compound 0.0949 µM
  viability, T/C: 64.2%
Second compound 0.316 µM, first compound 0.3 µM
  viability, T/C: 50.3%
Second compound 0.316 µM, first compound 0.949 µM
  viability, T/C: 39.3%
Second compound 0.316 µM, first compound 3 µM
  viability, T/C: 43.1%
Second compound 1 µM, first compound 0.00949 µM
  viability, T/C: 95.9%
Second compound 1 µM, first compound 0.03 µM
  viability, T/C: 77.8%
Second compound 1 µM, first compound 0.0949 µM
  viability, T/C: 66.4%
Second compound 1 µM, first compound 0.3 µM
  viability, T/C: 50.1%
Second compound 1 µM, first compound 0.949 µM
  viability, T/C: 48.4%
Second compound 1 µM, first compound 3 µM
  viability, T/C: 42.1%
Second compound 3.16 µM, first compound 0.00949 µM
  viability, T/C: 95.4%
Second compound 3.16 µM, first compound 0.03 µM
  viability, T/C: 86.7%
Second compound 3.16 µM, first compound 0.0949 µM
  viability, T/C: 74.9%
Second compound 3.16 µM, first compound 0.3 µM
  viability, T/C: 51.5%
Second compound 3.16 µM, first compound 0.949 µM
  viability, T/C: 40.9%
Second compound 3.16 µM, first compound 3 µM
  viability, T/C: 41%
Second compound 10 µM, first compound 0.00949 µM
  viability, T/C: 59.2%
Second compound 10 µM, first compound 0.03 µM
  viability, T/C: 49.8%
Second compound 10 µM, first compound 0.0949 µM
  viability, T/C: 52.2%
Second compound 10 µM, first compound 0.3 µM
  viability, T/C: 40%
Second compound 10 µM, first compound 0.949 µM
  viability, T/C: 34.9%
Second compound 10 µM, first compound 3 µM
  viability, T/C: 37.6%
